The values that follow come from US7713985B2, “Adenosine Aa2 receptor antagonists” (Schering Corporation, priority 2006, dated 2010).

pKi: −log10 of the molar value.

For this assay, the target named is T1, Human A2a Adenosine Receptor (Homo sapiens, UniProt P29274).
T1 construct: purchased Receptor Biology, Inc., Beltsville, Md; RB-HA2a
T1 sequence (P29274 whole entry): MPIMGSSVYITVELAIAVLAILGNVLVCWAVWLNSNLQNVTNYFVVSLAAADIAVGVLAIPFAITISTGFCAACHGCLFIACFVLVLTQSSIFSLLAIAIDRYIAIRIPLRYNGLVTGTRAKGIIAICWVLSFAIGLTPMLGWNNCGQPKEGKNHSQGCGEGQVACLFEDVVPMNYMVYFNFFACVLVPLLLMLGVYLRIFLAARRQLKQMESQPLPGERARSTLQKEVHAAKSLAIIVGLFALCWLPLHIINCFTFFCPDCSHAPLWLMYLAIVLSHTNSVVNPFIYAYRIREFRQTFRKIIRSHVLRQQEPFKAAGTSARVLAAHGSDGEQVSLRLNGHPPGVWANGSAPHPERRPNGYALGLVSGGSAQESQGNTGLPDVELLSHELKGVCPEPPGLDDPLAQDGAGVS
Briefly: Human adenosine A2a receptor competition binding assay. The note with it: [3H]-SCH 58261 displacement, human A2a membranes. As for the experimental part:
Human Adenosine A2a and A1 Receptor Competition Binding Assay Protocol
A2a: Human A2a Adenosine Receptor membranes, Catalog #RB-HA2a, Receptor Biology, Inc., Beltsville, Md. Dilute to 17 μg/100 μl in membrane dilution buffer (see below).
Membrane dilution buffer: Dulbecco's Phosphate Buffered Saline (Gibco/BRL)+10 mM MgCl2.
Compound Dilution Buffer: Dulbecco's Phosphate Buffered Saline (Gibco/BRL)+10 mM MgCl2 supplemented with 1.6 mg/ml methyl cellulose and 16% DMSO. Prepared fresh daily.
A2a: [3H]-SCH 58261, custom synthesis, AmershamPharmacia Biotech, Piscataway, N.J. Stock is prepared at 1 nM in membrane dilution buffer. Final assay concentration is 0.5 nM.
A2a: To determine non-specific binding, add 100 nM CGS 15923 (RBI, Natick, Mass.). Working stock is prepared at 400 nM in compound dilution buffer.
Prepare 1 mM stock solutions of compounds in 100% DMSO. Dilute in compound dilution buffer. Test at 10 concentrations ranging from 3 μM to 30 pM. Prepare working solutions at 4× final concentration in compound dilution buffer.
Perform assays in deep well 96 well plates. Total assay volume is 200 μl. Add 50 μl compound dilution buffer (total ligand binding) or 50 μl CGS 15923 working solution (A2a non-specific binding) or 50 μl NECA working solution (A1 non-specific binding) or 50 μl of drug working solution. Add 50 μl ligand stock ([3H]-SCH 58261 for A2a, [3H]-DPCPX for A1). Add 100 μl of diluted membranes containing the appropriate receptor. Mix. Incubate at room temperature for 90 minutes. Harvest using a Brandel cell harvester onto Packard GF/B filter plates. Add 45 μl Microscint 20 (Packard), and count using the Packard TopCount Microscintillation Counter. Determine IC50 values by fitting the displacement curves using an iterative curve fitting program (Excel). Determine Ki values using the Cheng-Prusoff equation.
`Nc1nc2ccccc2c2nn(Cc3c(Cl)cccc3Cl)c(=O)n12` [Example 8]: the pKi is 7.92. The value for `Nc1nc2ccccc2c2nn(Cc3cccc(F)c3)c(=O)n12` [Example 12] was 7.91.

Turning to `Nc1nc2ccccc2c2nn(Cc3cccc(Cl)c3)c(=O)n12` [Example 13], the pKi was 8.33.
